We go through 6 compounds from BindingDB's records for patent US11026923 (H. Lundbeck, 2021).

Assay in all cases: Inhibition Assay
Assay [1] has as its target Dual specificity calcium/calmodulin-dependent 3',5'-cyclic nucleotide phosphodiesterase 1A (Human, UniProt P54750).
Procedure: (§1) Reactions were initiated by addition of the cyclic nucleotide substrate, and reactions were allowed to proceed for 1 hr at room temperature before being terminated through mixing with 20 uL (0.2 mg) yttrium silicate SPA beads (PerkinElmer).
The target in assay [2] is Dual specificity calcium/calmodulin-dependent 3',5'-cyclic nucleotide phosphodiesterase 1B (Homo sapiens, UniProt Q01064).
Procedure: as §1
Assay [3] has as its target Dual specificity calcium/calmodulin-dependent 3',5'-cyclic nucleotide phosphodiesterase 1C (Human, UniProt Q14123).
Procedure: as §1

Sequence of Dual specificity calcium/calmodulin-dependent 3',5'-cyclic nucleotide phosphodiesterase 1C (Q14123 whole entry): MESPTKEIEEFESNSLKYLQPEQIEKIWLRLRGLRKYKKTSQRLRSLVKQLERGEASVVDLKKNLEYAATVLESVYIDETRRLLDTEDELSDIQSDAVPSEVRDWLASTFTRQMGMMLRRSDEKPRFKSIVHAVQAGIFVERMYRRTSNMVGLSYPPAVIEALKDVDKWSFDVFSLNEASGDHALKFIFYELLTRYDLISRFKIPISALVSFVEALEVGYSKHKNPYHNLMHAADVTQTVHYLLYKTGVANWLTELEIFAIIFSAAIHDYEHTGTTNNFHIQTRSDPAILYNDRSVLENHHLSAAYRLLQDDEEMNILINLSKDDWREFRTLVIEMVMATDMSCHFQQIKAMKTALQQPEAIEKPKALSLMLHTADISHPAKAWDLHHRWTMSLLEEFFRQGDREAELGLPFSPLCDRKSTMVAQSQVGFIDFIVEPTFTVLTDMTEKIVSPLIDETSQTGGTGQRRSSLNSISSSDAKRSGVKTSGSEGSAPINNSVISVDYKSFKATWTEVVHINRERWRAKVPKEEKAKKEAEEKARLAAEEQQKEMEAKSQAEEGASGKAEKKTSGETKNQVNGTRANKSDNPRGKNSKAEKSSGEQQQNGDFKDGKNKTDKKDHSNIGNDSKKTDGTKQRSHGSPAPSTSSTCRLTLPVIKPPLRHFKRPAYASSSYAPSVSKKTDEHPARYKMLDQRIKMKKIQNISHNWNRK
Sequence of Dual specificity calcium/calmodulin-dependent 3',5'-cyclic nucleotide phosphodiesterase 1A (P54750 whole entry): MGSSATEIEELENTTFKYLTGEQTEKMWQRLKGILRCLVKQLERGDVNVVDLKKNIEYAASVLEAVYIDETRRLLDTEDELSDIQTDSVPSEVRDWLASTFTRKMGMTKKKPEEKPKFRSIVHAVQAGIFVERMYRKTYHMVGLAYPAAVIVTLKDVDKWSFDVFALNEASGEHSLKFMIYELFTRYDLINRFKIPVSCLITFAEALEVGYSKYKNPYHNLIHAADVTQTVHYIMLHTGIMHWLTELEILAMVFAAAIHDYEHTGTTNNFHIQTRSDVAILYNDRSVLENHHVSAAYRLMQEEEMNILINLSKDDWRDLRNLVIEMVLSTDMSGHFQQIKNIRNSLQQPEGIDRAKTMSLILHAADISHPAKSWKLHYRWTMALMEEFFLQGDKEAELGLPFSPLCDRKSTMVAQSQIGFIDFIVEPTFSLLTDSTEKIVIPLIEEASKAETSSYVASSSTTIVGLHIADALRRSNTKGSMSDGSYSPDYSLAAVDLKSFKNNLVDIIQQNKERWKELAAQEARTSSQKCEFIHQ
Sequence of Dual specificity calcium/calmodulin-dependent 3',5'-cyclic nucleotide phosphodiesterase 1B (Q01064 whole entry): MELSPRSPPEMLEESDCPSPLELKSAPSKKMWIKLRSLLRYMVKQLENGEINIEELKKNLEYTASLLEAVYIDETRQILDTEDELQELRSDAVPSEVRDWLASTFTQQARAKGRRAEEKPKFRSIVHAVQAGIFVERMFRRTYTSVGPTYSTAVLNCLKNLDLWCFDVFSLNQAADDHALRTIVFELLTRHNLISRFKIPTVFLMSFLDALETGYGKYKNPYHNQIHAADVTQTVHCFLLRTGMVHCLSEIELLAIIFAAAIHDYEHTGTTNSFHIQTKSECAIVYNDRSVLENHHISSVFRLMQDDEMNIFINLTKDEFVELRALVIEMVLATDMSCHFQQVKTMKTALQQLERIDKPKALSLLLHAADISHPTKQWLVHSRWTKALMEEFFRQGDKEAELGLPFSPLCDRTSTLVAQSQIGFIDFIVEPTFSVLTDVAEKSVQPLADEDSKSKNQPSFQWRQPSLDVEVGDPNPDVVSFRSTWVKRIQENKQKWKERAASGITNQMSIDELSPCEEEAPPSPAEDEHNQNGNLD

By IC50 is commonly meant the point on the concentration scale where inhibition reaches its midpoint. As to `COc1ncccc1/C=C/C(NCc1cnn(C)c1)=C1\CC(C)=NN1C(C)C` [US11026923, Example 62], the IC50 in assay [1] was found to be 16 nM; in assay [2], 2.4 nM; in assay [3], 21 nM.
Regarding `COc1ccccc1/C=C/C(NCc1cnn(C)c1)=C1\CC(C)=NN1C(C)C` [US11026923, Example 63], the IC50 in assay [1] was 64 nM; in assay [2], 9.4 nM; in assay [3], 20 nM.
Consider `CC1=NN(C(C)C)/C(=C(/C=C/c2cnn(C)c2C)NCc2cnn(C)c2)C1` [US11026923, Example 66], for which the IC50 in assay [1] was 210 nM; in assay [2], 59 nM; in assay [3] it was 220 nM.
As for `CC1=NN(C(C)C)/C(=C(/C=C/c2ccsc2C)NCc2cnn(C)c2)C1` [US11026923, Example 65], the IC50 was found to be 7.9 nM in assay [1] and 1.2 nM in assay [2].
As to `CC1=NN(C(C)C)/C(=C(/C=C/c2cn(C)nc2C)NCc2cnn(C)c2)C1` [US11026923, Example 61], the IC50 in assay [1] came out at 550 nM; in assay [2] it was 120 nM; in assay [3], 680 nM.
The corresponding values for `CC1=NN(C(C)C)/C(=C(/C=C/c2ccccc2)NCc2cnn(C)c2)C1` [US11026923, Example 64] are 52 nM, 12 nM and 47 nM.
